# Laboratory results as given in patent US9018218B2 (priority 2010, dated 2015).
# Read-outs that look alike come from different tables or passages of the source.
# Columns and labels:
# cucumber downy mildew = experiment: fungicidal activity in vivo, cucumber downy mildew on cucumber seedling leaves; details: spray, investigated after 5 days
# Description: (§1) The procedure of determination of fungicidal activity in vivo is as follow:
# The compounds of the present invention were diluted to given concentrations and sprayed on the leaves of cucumber seedling at the same stage, on which growing point were cut off and two euphyllas were kept meanwhile, water were set as the blank control, three replicates were set for each treatment. Cucumber downy mildew spore suspension were inoculated on the second day after treatment, then, the plants were placed in a chamber (temperature: day 25° C., and night 20° C., relative humidity 95 to 100%), and then placed in greenhouse (25±2° C.) 24 hours later and routine management was conducted. The test results were investigated after 5 days, disease grading refers to the national standard of the People's Republic of China [The test criteria of pesticide field trial], the control effect was calculated by disease index.
# wheat powdery mildew = experiment: fungicidal activity in vivo, wheat powdery mildew on wheat seedling leaves; details: spray, investigated after 7 days
# Description: as §1
# The compounds of the present invention were diluted to given concentrations and sprayed on the leaves of wheat seedling at the same two-leaf stage, meanwhile, water were set as the blank control, three replicates were set for each treatment. Wheat powdery mildew spore suspension were inoculated on the second day after treatment, and then placed in greenhouse (25±2° C.) and routine management was conducted. The test results were investigated after 7 days, disease grading refers to the national standard of the People's Republic of China [The test criteria of pesticide field trial], the control effect was calculated by disease index.
# wheat rust = details: in vivo
# rice blast = experiment: microbe, parasite or virus in culture; type: cell-based; details: for rice blast inhibition rate %: in vitro spore germination; for inhibition at 25 µg/mL / inhibition at 2.8 µg/mL / inhibition at 8.3 µg/mL: Pyricularia oryzae, read-out: rice blast inhibition rate %
# [1] = 400 mg/L, spray, investigated after 7 days
# [2] = 100 mg/L, spray, investigated after 7 days
SMILES,cucumber downy mildew control % (cucumber downy mildew; 50 mg/L),cucumber downy mildew control % (cucumber downy mildew; 100 mg/L),cucumber downy mildew control % (cucumber downy mildew; 400 mg/L),wheat powdery mildew control % (wheat powdery mildew; 50 mg/L),wheat powdery mildew control % (wheat powdery mildew; 100 mg/L),wheat powdery mildew control % (wheat powdery mildew; 400 mg/L),wheat rust control % (wheat rust; [1]),wheat rust control % (wheat rust; [2]),rice blast inhibition rate % (rice blast; 2.8 mg/L),rice blast inhibition rate % (rice blast; 8.3 mg/L),rice blast inhibition rate % (rice blast; 25 mg/L),"wheat rust control % (wheat rust; 50 mg/L, spray, investigated after 7 days)",wheat rust control % (wheat rust),inhibition at 25 µg/mL (rice blast),inhibition at 2.8 µg/mL (rice blast),inhibition at 8.3 µg/mL (rice blast),melting point
CCCCc1c(C)nc(Nc2ccccc2)nc1OC(=O)OC [Compound 1],0%,20%,95%,98%,100%,100%,–,–,–,–,–,–,–,–,–,–,–
CCCCc1c(C)nc(Nc2ccc(OC(F)(F)F)cc2)nc1OC(=O)OC [Compound 13],–,–,30%,–,–,95%,0%,–,–,–,–,–,–,–,–,–,–
CCCCc1c(C)nc(Nc2ccccc2)nc1OC(=O)OC(C)C [Compound 46],–,10%,95%,98%,100%,100%,100%,0%,80%,100%,100%,–,–,–,–,–,–
CCCCc1c(C)nc(Nc2ccc(OC(F)(F)F)cc2)nc1OC(=O)OC(C)C [Compound 53],–,–,95%,–,–,50%,0%,–,–,–,50%,–,–,–,–,–,–
CCCCc1c(C)nc(Nc2ccccc2)nc1OC(=O)OCC [Compound 75],–,30%,95%,50%,98%,95%,98%,60%,–,–,50%,30%,–,–,–,–,–
CCCCOC(=O)Oc1nc(Nc2ccccc2)nc(C)c1CCCC [Compound 101],–,–,70%,70%,95%,100%,98%,0%,–,–,50%,–,–,–,–,–,–
CCCCc1c(C)nc(Nc2ccccc2)nc1OC(=O)OCc1ccccc1 [Compound 156],–,–,30%,–,80%,100%,–,–,–,–,–,–,0%,80%,–,–,–
CCCCc1c(C)nc(Nc2ccccc2)nc1OC(=O)OC(C)c1ccccc1 (stereo not drawn) [Compound 173],–,–,50%,–,80%,100%,0%,–,–,–,50%,–,–,–,–,–,–
Cc1nc(Nc2ccccc2)nc(OC(=O)OC(C)C)c1C [Compound 253],–,–,20%,–,–,0%,95%,–,50%,80%,100%,–,–,–,–,–,–
Cc1cc(OC(=O)OC(C)C)nc(Nc2ccccc2)n1 [Compound 270],–,–,0%,–,–,0%,60%,–,–,0%,100%,–,–,–,–,–,–
CC(C)OC(=O)Oc1nc(Nc2ccccc2)nc2c1CCC2 [Compound 393],–,–,0%,–,–,0%,–,–,–,–,–,–,70%,100%,0%,80%,124 to 126 °C
CC(C)OC(=O)Oc1nc(Nc2ccccc2)nc2c1CCCC2 [Compound 427],–,–,0%,–,–,0%,98%,–,–,80%,100%,–,–,–,–,–,–
CC(C)OC(=O)Oc1nc(Nc2ccc(F)c(F)c2F)nc2c1CCCC2 [Compound 443],–,–,90%,–,–,0%,–,–,–,–,–,–,0%,100%,50%,100%,124 to 126 °C
"CCCCc1c(C)nc(N(C)C)nc1OC(=O)OCC [Compound K1, reference compound]",–,–,0%,–,0%,100%,–,–,–,–,–,–,0%,100%,0%,80%,–
"COC(=O)Oc1cc(C2CC2)nc(Nc2ccccc2)n1 [Compound K2, reference compound]",–,–,0%,–,–,0%,–,–,–,–,–,–,0%,80%,–,–,–
